Laboratory results from ChEMBL document CHEMBL1123068, “2-Fluoroformycin and 2-aminoformycin. Synthesis and biological activity” (J Med Chem, 1985).

Experiment: Ratio of kinetic parameters Vmax to the of Km.

| SMILES | Ratio |
| --- | --- |
| Nc1nc(F)nc2c1ncn2[C@@H]1O[C@H](CO)[C@@H](O)[C@@H]1O | 0.0096 |
| Nc1ncnc2c1ncn2[C@@H]1O[C@H](CO)[C@@H](O)[C@H]1O | 15 |
| Nc1nc(N)c2ncn([C@@H]3O[C@H](CO)[C@@H](O)[C@H]3O)c2n1 | 3.6 |
